In PubChem BioAssay (NCI):
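A five-concentration, 48-hour dose response in 96-well plates underlies each endpoint, interpolated linearly between surrounding concentrations. The concentration for 50% growth inhibition is given as GI50. Definition used: TGI = concentration required for complete inhibition of growth.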

Columns and labels:
Assay in all cases: NCI tumour cell line growth inhibition, 48 h
HL-60(TB) leukemia = system: HL-60(TB) leukemia
M14 melanoma = system: M14 melanoma
CAKI-1 renal = system: CAKI-1 renal
HS 578T breast = system: HS 578T breast
SK-MEL-5 melanoma = system: SK-MEL-5 melanoma
OVCAR-3 ovarian = system: OVCAR-3 ovarian
T-47D breast = system: T-47D breast
K-562 leukemia = system: K-562 leukemia
CCRF-CEM leukemia = system: CCRF-CEM leukemia
NCI-H23 lung = system: NCI-H23 lung
SF-539 CNS = system: SF-539 CNS
UACC-62 melanoma = system: UACC-62 melanoma
COLO 205 colon = system: COLO 205 colon
OVCAR-8 ovarian = system: OVCAR-8 ovarian
SNB-19 CNS = system: SNB-19 CNS
786-0 renal = system: 786-0 renal
SF-295 CNS = system: SF-295 CNS
NCI/ADR-RES ovarian = system: NCI/ADR-RES ovarian
RPMI-8226 leukemia = system: RPMI-8226 leukemia
UACC-257 melanoma = system: UACC-257 melanoma
SW-620 colon = system: SW-620 colon
SK-MEL-28 melanoma = system: SK-MEL-28 melanoma
NCI-H522 lung = system: NCI-H522 lung
HOP-62 NSCLC = system: HOP-62 NSCLC
TK-10 renal = system: TK-10 renal
HT29 colon = system: HT29 colon
MOLT-4 leukemia = system: MOLT-4 leukemia
OVCAR-5 ovarian = system: OVCAR-5 ovarian

## CN(C)CCNc1cc(-c2ccccc2)nc2ccccc12
HL-60(TB) leukemia
  GI50: 4.58 µM
  TGI: 22.3 µM
M14 melanoma
  GI50: 10.3 µM
  TGI: 24.8 µM
CAKI-1 renal
  GI50: 6.56 µM
  TGI: 40.9 µM
HS 578T breast
  GI50: 12 µM
  TGI: 37.1 µM
SK-MEL-5 melanoma
  GI50: 10.1 µM
  TGI: 22.4 µM
OVCAR-3 ovarian
  GI50: 8.9 µM
  TGI: 33.1 µM
T-47D breast
  GI50: 8.79 µM
  TGI: 37.2 µM
K-562 leukemia
  GI50: 2.6 µM
  TGI: 12.3 µM
CCRF-CEM leukemia
  GI50: 4.43 µM
  TGI: 37.3 µM
NCI-H23 lung
  GI50: 11.2 µM
  TGI: 37.6 µM
SF-539 CNS
  GI50: 8.22 µM
  TGI: 22.7 µM
UACC-62 melanoma
  GI50: 13.7 µM
  TGI: 30 µM
COLO 205 colon
  GI50: 2.92 µM
  TGI: 7.74 µM
OVCAR-8 ovarian
  GI50: 4.1 µM
  TGI: 22 µM
SNB-19 CNS
  GI50: 14.6 µM
  TGI: 49.7 µM
786-0 renal
  GI50: 6.87 µM
  TGI: 23.8 µM
SF-295 CNS
  GI50: 7.85 µM
  TGI: 46.9 µM
NCI/ADR-RES ovarian
  GI50: 9.11 µM
  TGI: 53.3 µM
RPMI-8226 leukemia
  GI50: 4.09 µM
  TGI: 21.8 µM
UACC-257 melanoma
  GI50: 11.5 µM
  TGI: 26.7 µM
SW-620 colon
  GI50: 3.94 µM
  TGI: 21.5 µM
SK-MEL-28 melanoma
  GI50: 13.4 µM
  TGI: 28.5 µM
NCI-H522 lung
  GI50: 8.11 µM
  TGI: 27.8 µM
HOP-62 NSCLC
  GI50: 6.02 µM
  TGI: 32.9 µM
TK-10 renal
  GI50: 6.94 µM
  TGI: 38.8 µM
HT29 colon
  GI50: 4.01 µM
  TGI: 16.7 µM
MOLT-4 leukemia
  GI50: 3.27 µM
  TGI: 11.6 µM
OVCAR-5 ovarian
  GI50: 5.9 µM
  TGI: 36.8 µM
